Measurements: patent publication US20210024490A1, “METHOD FOR THE PREPARATION OF THE METABOLITES OF (4S)- AND (4R)-4-(4-CYANO-2-METHOXYPHENYL)-5-ETHOXY-2,8-DIMETHYL-1,4-DIHYDRO-1,6-NAPHTHYRIDINE-3-CARBOXAMIDE AND THE USE THEREOF” (Bayer Pharma Aktiengesellschaft, priority 2015, published 2021)

Key:
[1] = set-up: species or system humans; conditions: dog, rat, mouse, human, in vivo
Text: For pharmacokinetic measurements, standards of very high quality had to be prepared in order to be able to carry out reliable quantification. From the structural elucidation of the metabolites (via MS of the serum of various animal species and humans) obtained after administration of (4 S)-4-(4-cyano-2-methoxyphenyl)-5-ethoxy-2,8-dimethyl-1,4-dihydro-1,6-naphthyridine-3-carboxamide of the formula 4S (I), the following 6 main metabolites were found (the absolute stereochemistry of the atropisomers can be assigned according to the Cahn-Ingold-Prelog convention and is specified in parentheses):
If the R enantiomer 4R (I) is used, […]

[2] = molecular target: T1, human mineralocorticoid receptor (MR) (Homo sapiens, UniProt P08235); test: Cellular in vitro assay to determine the inhibitory MR activity (GAL4-steroid hormone receptor chimera, luciferase reporter, CHO K1 cells); assay type: cell-based; conditions: antagonism of aldosterone-stimulated GAL4-MR chimera
T1 construct: expressed in transfected cells; host or cells: CHO K1 (Chinese hamster ovary), stably transfected
T1 sequence (P08235 734-984 limits assumed): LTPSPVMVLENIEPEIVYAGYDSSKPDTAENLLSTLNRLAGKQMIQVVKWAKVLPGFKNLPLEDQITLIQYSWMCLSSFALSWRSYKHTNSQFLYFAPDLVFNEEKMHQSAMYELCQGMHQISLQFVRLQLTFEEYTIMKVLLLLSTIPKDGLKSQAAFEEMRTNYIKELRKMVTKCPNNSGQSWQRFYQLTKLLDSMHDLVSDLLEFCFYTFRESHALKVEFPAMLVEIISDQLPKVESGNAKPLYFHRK
Text: B-1. Cellular In Vitro Assay to Determine the Inhibitory MR Activity and MR Selectivity Compared with Other Steroid Hormone Receptors
Antagonists of the human mineralocorticoid receptor (MR) are identified, and the efficacy of the compounds described herein is quantified with the aid of a recombinant cell line. The cell is originally derived from a hamster ovary epithelial cell (Chinese Hamster Ovary, CHO K1, ATCC: American Type Culture Collection, VA 20108, USA).
An established chimera system in which the ligand-binding domains of human steroid hormone receptors are fused to the DNA-binding domain of the yeast transcription factor GAL4 is used in this CHO K1 cell line. The GAL4-steroid hormone receptor chimeras produced in this way are cotransfected and stably expressed with a reporter construct in the CHO cells.
To generate the GAL4-steroid hormone receptor chimeras, the GAL4 DNA-binding domain (amino acids 1-147) from the vector pFC2dbd (from Stratagene) is cloned with the PCR-amplified ligand-binding domains of the mineralocorticoid receptor (MR, amino acids 734-985), of the glucocorticoid receptor (GR, amino acids 443-777), of the progesterone receptor (PR, amino acids 680-933) and of the androgen receptor (AR, amino acids 667-919) into the vector pIRES2 (from Clontech). […]
The MR cells are plated out in medium (Optimem, 2.5% FCS, 2 mM glutamine, 10 mM HEPES) in 96-well (or 384- or 1536-well) microliter plates the day before the assay, and are kept in a cell incubator (96% air humidity, 5% v/v CO2, 37° C.). […] After a further incubation time of 5 to 6 hours, the luciferase activity is measured with the aid of a video camera. The relative light units measured give a sigmoidal stimulation curve as a function of the substance concentration. The IC50 values (in mol) are calculated with the aid of the computer program GraphPad PRISM (Version 3.02).

SMILES	main metabolites formed [1]	IC50 [2] [µM]
CCOc1ncc(C)c2c1[C@@H](c1ccc(C#N)cc1OC)C(C(N)=O)=C(C)N2 [4R (I), (4R)-4-(4-cyano-2-methoxyphenyl)-5-ethoxy-2,8-dimethyl-1,4-dihydro-1,6-naphthyridine-3-carboxamide]	the metabolites of the b series are principally formed, i.e. M1b (R), M2b (R) and M3b (R)	
CCOc1ncc(C)c2nc(C)c(C(N)=O)c(-c3ccc(C#N)cc3OC)c12 (single isomer, unassigned) [M1a (S)]		9.33
CCOc1ncc(C)c2c1[C@H](c1ccc(C#N)cc1OC)C(C(N)=O)=C(C)N2 [Compound of the formula (I), (4S)-4-(4-cyano-2-methoxyphenyl)-5-ethoxy-2,8-dimethyl-1,4-dihydro-1,6-naphthyridine-3-carboxamide]	metabolized mainly to M1a (S) and the subsequent metabolites M2a (S) and M3a (S)	0.0277
CCOc1ncc(C)c2nc(C)c(C(N)=O)c(-c3ccc(C#N)cc3OC)c12 (single isomer, unassigned) [M1b (R)]		> 10
